In patent US8133847B2, “Pyrido[2,3-B]pyrazine derivatives useful as herbicidal compounds” (Syngenta Limited, priority 2006, dated 2012):

What was measured:
Experiment in all cases: Example B2 herbicidal action, post-emergence, pots in glasshouse
Type in all cases: in vivo
[1] = tested on: Amaranthus retroflexus (AMARE); conditions: Application post-emergence, evaluated after 13 days (100=total damage to plant; 0=no damage to plant)
Experimental: (§1) Seeds of a variety of test species were sown in standard soil in pots. After 8 days cultivation (post-emergence) under controlled conditions in a glasshouse (at 24/16° C., day/night; 14 hours light; 65% humidity), the plants were sprayed with an aqueous spray solution derived from the formulation of the technical active ingredient in acetone/water (50:50) solution containing 0.5% Tween 20 (polyoxyethylene sorbitan monolaurate, CAS RN 9005-64-5). The test plants were then grown in a glasshouse under controlled conditions in a glasshouse (at 24/16° C., day/night; 14 hours light; 65% humidity) and watered twice daily. After 13 days, the test was evaluated (100=total damage to plant; 0=no damage to plant).

[2] = tested on: Echinochloa crusgalli (ECHCG); conditions: Application post-emergence, evaluated after 13 days (100=total damage to plant; 0=no damage to plant)
Experimental: as §1

[3] = tested on: Setaria faberi (SETFA); conditions: Application post-emergence, evaluated after 13 days (100=total damage to plant; 0=no damage to plant)
Experimental: as §1

[4] = tested on: Ipomea hederaceae (IPOHE); conditions: Application post-emergence, evaluated after 13 days (100=total damage to plant; 0=no damage to plant)
Experimental: as §1

[5] = tested on: Solanum nigrum (SOLNI); conditions: Application post-emergence, evaluated after 13 days
Experimental: as §1

| SMILES | damage to plant, Amaranthus retroflexus (AMARE) [1] | damage to plant, Echinochloa crusgalli (ECHCG) [2] | damage to plant, Setaria faberi (SETFA) [3] | damage to plant, Ipomea hederaceae (IPOHE) [4] | damage to plant, Solanum nigrum (SOLNI) [5] |
| --- | --- | --- | --- | --- | --- |
| CC(C)(C)C(=O)Oc1c(-c2c(F)ccc(Br)c2Cl)c(=O)[nH]c2nccnc12 [Compound B49] | 10 | 3 | 7 | 8 | 9 |
| CC(C)C(=O)Oc1c(-c2c(F)ccc(Br)c2Cl)c(=O)[nH]c2nccnc12 [Compound B50] | 10 | 8 | 8 | 8 | 9 |
| CC(C)(C)C(=O)Oc1c(-c2ccccc2Br)c(=O)[nH]c2nccnc12 [Compound B51] | 3 | 3 | 6 | 0 | 7 |
| CC(C)(C)C(=O)Oc1c(-c2ccccc2OC(F)F)c(=O)[nH]c2nccnc12 [Compound B59] | 0 | 0 | 4 | 3 | 2 |
| CCn1c(=O)c(-c2c(Cl)cc(C(F)(F)F)cc2Cl)c(OC(=O)C(C)(C)C)c2nccnc21 [Compound C129] | 10 | 4 | 6 | 9 | 10 |
| CC(C)(C)C(=O)Oc1c(-c2c(F)ccc(F)c2Cl)c(=O)n(CC2CCC2)c2nccnc12 [Compound C131] | 0 | 0 | 0 | 0 | 2 |
| Cc1ccc(C)c(-c2c(OC(=O)C(C)C)c3nccnc3n(C)c2=O)c1 [Compound C133] | 9 | 6 | 4 | 3 | 9 |
| Cc1ccc(C)c(-c2c(OC(=O)C(C)(C)C)c3nccnc3n(C)c2=O)c1 [Compound C134] | 9 | 0 | 2 | 6 | 10 |
| CCn1c(=O)c(-c2cc(C)ccc2C)c(OC(=O)C(C)(C)C)c2nccnc21 [Compound C135] | 8 | 2 | 0 | 0 | 10 |
| Cn1c(=O)c(-c2c(Cl)cc(OC(F)(F)F)cc2Cl)c(OC(=O)C(C)(C)C)c2nccnc21 [Compound C138] | 8 | 2 | 4 | 8 | 8 |
| CCn1c(=O)c(-c2c(Cl)cc(OC(F)(F)F)cc2Cl)c(OC(=O)C(C)(C)C)c2nccnc21 [Compound C139] | 10 | 10 | 10 | 10 | 10 |
| Cn1c(=O)c(-c2ccc(C(F)(F)F)cc2[N+](=O)[O-])c(OC(=O)C(C)(C)C)c2nccnc21 [Compound C140] | 8 | 3 | 0 | 2 | 9 |
| CC(C)C(=O)Oc1c(-c2cc(F)ccc2Cl)c(=O)n(C)c2nccnc12 [Compound C142] | 10 | 8 | 7 | 9 | 10 |
| Cn1c(=O)c(-c2cc(F)ccc2Cl)c(OC(=O)C(C)(C)C)c2nccnc21 [Compound C143] | 10 | 7 | 8 | 9 | 10 |
| CC(C)C(=O)Oc1c(-c2c(F)ccc(Br)c2Cl)c(=O)n(C)c2nccnc12 [Compound C144] | 10 | 4 | 2 | 9 | 10 |
| Cn1c(=O)c(-c2c(F)ccc(Br)c2Cl)c(OC(=O)C(C)(C)C)c2nccnc21 [Compound C145] | 7 | 1 | 0 | 6 | 9 |
| Cn1c(=O)c(-c2ccccc2Br)c(OC(=O)C(C)(C)C)c2nccnc21 [Compound C146] | 9 | 5 | 6 | 7 | 8 |
| CCn1c(=O)c(-c2ccc(C(F)(F)F)cc2Br)c(OC(=O)C(C)(C)C)c2nccnc21 [Compound C147] | 2 | 0 | 0 | 2 | 4 |
| CC(C)C(=O)Oc1c(-c2cc(F)c(Cl)cc2Cl)c(=O)n(C)c2nccnc12 [Compound C148] | 9 | 6 | 4 | 7 | 6 |
| Cn1c(=O)c(-c2cc(F)c(Cl)cc2Cl)c(OC(=O)C(C)(C)C)c2nccnc21 [Compound C149] | 9 | 3 | 3 | 5 | 7 |
| CCn1c(=O)c(-c2cc(F)ccc2Cl)c(OC(=O)C(C)C)c2nccnc21 [Compound C150] | 10 | 3 | 6 | 9 | 10 |
| CCn1c(=O)c(-c2cc(F)ccc2Cl)c(OC(=O)C(C)(C)C)c2nccnc21 [Compound C151] | 7 | 0 | 0 | 4 | 6 |
| CCn1c(=O)c(-c2cc(F)c(Cl)cc2Cl)c(OC(=O)C(C)C)c2nccnc21 [Compound C152] | 10 | 4 | 2 | 6 | 9 |
| CCn1c(=O)c(-c2cc(F)c(Cl)cc2Cl)c(OC(=O)C(C)(C)C)c2nccnc21 [Compound C153] | 9 | 1 | 1 | 5 | 8 |
| CCn1c(=O)c(-c2c(F)ccc(Br)c2Cl)c(OC(=O)C(C)C)c2nccnc21 [Compound C154] | 10 | 3 | 0 | 9 | 10 |
| CCn1c(=O)c(-c2c(F)ccc(Br)c2Cl)c(OC(=O)C(C)(C)C)c2nccnc21 [Compound C155] | 10 | 3 | 0 | 9 | 10 |
| COc1ccc(OC(F)(F)F)cc1-c1c(OC(=O)C(C)C)c2nccnc2n(C)c1=O [Compound C159] | 9 | 9 | 7 | 2 | 8 |
| CCn1c(=O)c(-c2cc(OC(F)(F)F)ccc2OC)c(OC(=O)C(C)C)c2nccnc21 [Compound C160] | 10 | 8 | 6 | 7 | 9 |
| Cn1c(=O)c(-c2cc(F)c(F)cc2Cl)c(OC(=O)C(C)(C)C)c2nccnc21 [Compound C162] | 9 | 8 | 7 | 7 | 10 |
| Cn1c(=O)c(-c2c(F)ccc(Cl)c2Cl)c(OC(=O)C(C)(C)C)c2nccnc21 [Compound C163] | 6 | 1 | 0 | 9 | 9 |
